# Source: the supplement of paper PMC12350171
# How the values were obtained:
# [1] = test system: Yersinia enterocolitica WA-314; test: IC25 growth inhibition; higher = less potent
# Procedure, shortened: (§1)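 Overnight monocultures grown in mGAM were moved into pre-reduced plates containing twofold drug dilutions, at a starting OD578 of 0.01 with 1% DMSO (or water). Plates were kept anaerobic and read hourly at OD578 in a plate reader, with at least three biological replicates. For each concentration, the median area under the growth curve was made monotonic, and IC25 was the lowest concentration whose median fell below a cutoff, reported as a tested interval. That cutoff was 0.75.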
# [2] = test system: Coprococcus comes; test: IC25 growth inhibition; higher = less potent
# Procedure, shortened: as §1
# [3] = test system: Yersinia pseudotuberculosis; test: IC25 growth inhibition; higher = less potent
# Procedure, shortened: as §1
# [4] = test system: Bacteroides fragilis NT; test: IC25 growth inhibition; higher = less potent
# Procedure, shortened: as §1
# [5] = test system: Bacteroides vulgatus; test: IC25 growth inhibition; higher = less potent
# Procedure, shortened: as §1
# [6] = test system: Escherichia coli ED1a; test: IC25 growth inhibition; higher = less potent
# Procedure, shortened: as §1
# [7] = test system: Streptococcus parasanguinis; test: IC25 growth inhibition; higher = less potent
# Procedure, shortened: as §1
# [8] = test system: Ruminococcus gnavus; test: IC25 growth inhibition; higher = less potent
# Procedure, shortened: as §1
# [9] = test system: Bacteroides thetaiotaomicron; test: IC25 growth inhibition; higher = less potent
# Procedure, shortened: as §1
# [10] = test system: Vibrio cholerae; test: IC25 growth inhibition; higher = less potent
# Procedure, shortened: as §1
# [11] = test system: Dorea formicigenerans; test: IC25 growth inhibition; higher = less potent
# Procedure, shortened: as §1
# [12] = test system: Parabacteroides merdae; test: IC25 growth inhibition; higher = less potent
# Procedure, shortened: as §1
# [13] = test system: Collinsella aerofaciens; test: IC25 growth inhibition; higher = less potent
# Procedure, shortened: as §1
# [14] = test system: Salmonella enterica typhimurium; test: IC25 growth inhibition; higher = less potent
# Procedure, shortened: as §1
# [15] = test system: Streptococcus salivarius; test: IC25 growth inhibition; higher = less potent
# Procedure, shortened: as §1
# [16] = test system: Bacteroides uniformis; test: IC25 growth inhibition; higher = less potent
# Procedure, shortened: as §1
# [17] = test system: Roseburia intestinalis; test: IC25 growth inhibition; higher = less potent
# Procedure, shortened: as §1
# [18] = test system: Fusobacterium nucleatum subsp. Nucleatum; test: IC25 growth inhibition; higher = less potent
# Procedure, shortened: as §1
# [19] = test system: Shigella flexneri; test: IC25 growth inhibition; higher = less potent
# Procedure, shortened: as §1
# [20] = test system: Eubacterium rectale; test: IC25 growth inhibition; higher = less potent
# Procedure, shortened: as §1
# [21] = test system: Clostridium bolteae; test: IC25 growth inhibition; higher = less potent
# Procedure, shortened: as §1
# [22] = test system: Clostridium perfringens; test: IC25 growth inhibition; higher = less potent
# Procedure, shortened: as §1
# [23] = test system: Clostridium saccharolyticum; test: IC25 growth inhibition; higher = less potent
# Procedure, shortened: as §1
# [24] = test system: Clostridium ramosum; test: IC25 growth inhibition; higher = less potent
# Procedure, shortened: as §1
# [25] = test system: Com21 synthetic gut community; test: community biomass OD578 after 24 h drug treatment relative to untreated (fraction of untreated control); higher = more community growth; settings: community: Com21 (Com20 + E. coli ED1a)
# Procedure: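 Com21 (Com20 plus E. coli ED1a) was treated with drug for 24 h under anaerobic conditions in mGAM. Community OD578 was then measured and normalised to untreated Com21; mean of 3 biological replicates.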
# [26] = drug pretreatment concentration 10 µM
# [27] = drug pretreatment concentration 20 µM
# [28] = drug pretreatment concentration 40 µM
# [29] = drug pretreatment concentration 80 µM
# [30] = drug pretreatment concentration 160 µM
# 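Wherever IC25 growth inhibition is given: lowest concentration where monotonic median growth AUC falls below 0.75 of drug-free control.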
SMILES,IC25 growth inhibition [1] [µM],IC25 growth inhibition [2] [µM],IC25 growth inhibition [3] [µM],IC25 growth inhibition [4] [µM],IC25 growth inhibition [5] [µM],IC25 growth inhibition [6] [µM],IC25 growth inhibition [7] [µM],IC25 growth inhibition [8] [µM],IC25 growth inhibition [9] [µM],IC25 growth inhibition [10] [µM],IC25 growth inhibition [11] [µM],IC25 growth inhibition [12] [µM],IC25 growth inhibition [13] [µM],IC25 growth inhibition [14] [µM],IC25 growth inhibition [15] [µM],IC25 growth inhibition [16] [µM],IC25 growth inhibition [17] [µM],IC25 growth inhibition [18] [µM],IC25 growth inhibition [19] [µM],IC25 growth inhibition [20] [µM],IC25 growth inhibition [21] [µM],IC25 growth inhibition [22] [µM],IC25 growth inhibition [23] [µM],IC25 growth inhibition [24] [µM],"community biomass OD578 [25, 26]","community biomass OD578 [25, 27]","community biomass OD578 [25, 28]","community biomass OD578 [25, 29]","community biomass OD578 [25, 30]"
CCOC(=O)C1=C(COCCN)NC(C)=C(C(=O)OC)C1c1ccccc1Cl (stereo not drawn) [Amlodipine],> 80,> 80,> 80,≤ 80,≤ 40,> 80,> 80,≤ 80,≤ 80,> 80,≤ 40,≤ 80,≤ 80,> 80,≤ 40,≤ 80,≤ 40,≤ 80,> 80,≤ 80,,,,,,,,,
O=C1CCc2ccc(OCCCCN3CCN(c4cccc(Cl)c4Cl)CC3)cc2N1 [Aripiprazole],> 160,> 160,> 40,> 160,> 160,> 160,> 80,> 160,> 160,> 160,> 160,> 160,> 160,> 80,> 80,> 160,> 160,> 160,> 160,> 160,> 160,> 160,> 160,> 160,,,,,
CC[C@H](C)[C@H]1O[C@]2(C=C[C@@H]1C)C[C@@H]1C[C@@H](C/C=C(\C)[C@@H](O[C@H]3C[C@H](OC)[C@@H](O[C@H]4C[C@H](OC)[C@@H](O)[C@H](C)O4)[C@H](C)O3)[C@@H](C)/C=C/C=C3\CO[C@@H]4[C@H](O)C(C)=C[C@@H](C(=O)O1)[C@]34O)O2.CO[C@H]1C[C@H](O[C@H]2[C@H](C)O[C@@H](O[C@@H]3/C(C)=C/C[C@@H]4C[C@@H](C[C@]5(C=C[C@H](C)[C@@H](C(C)C)O5)O4)OC(=O)[C@@H]4C=C(C)[C@@H](O)[C@H]5OC/C(=C\C=C\[C@@H]3C)[C@]54O)C[C@@H]2OC)O[C@@H](C)[C@@H]1O [Avermectin B1],> 10,≤ 20,> 10,≤ 10,≤ 10,> 160,≤ 20,≤ 10,≤ 20,> 20,≤ 5,≤ 10,≤ 10,> 80,≤ 10,≤ 20,≤ 2.5,> 40,> 20,≤ 10,≤ 40,≤ 10,≤ 80,≤ 40,,,,,
CC[C@H]1OC(=O)[C@H](C)[C@@H](O[C@H]2C[C@@](C)(OC)[C@@H](O)[C@H](C)O2)[C@H](C)[C@@H](O[C@@H]2O[C@H](C)C[C@H](N(C)C)[C@H]2O)[C@](C)(OC)C[C@@H](C)C(=O)[C@H](C)[C@@H](O)[C@]1(C)O [Clarithromycin],≤ 5,< 1.25,> 160,< 1.25,< 1.25,≤ 40,< 1.25,< 1.25,< 1.25,< 1.25,< 1.25,< 1.25,< 1.25,≤ 40,< 1.25,< 1.25,< 1.25,≤ 5,≤ 10,< 1.25,< 1.25,< 1.25,< 1.25,< 1.25,,,,,
CCC[C@@H]1C[C@@H](C(=O)N[C@@H]([C@H]2O[C@H](SC)[C@H](O)[C@@H](O)[C@H]2O)[C@H](C)Cl)N(C)C1 [Clindamycin],,,,,,,,,,,,,,,,,,,,,,,,,0.263,0.273,0.238,0.158,0.062
CCN(CC)CCOc1ccc(C(=C(Cl)c2ccccc2)c2ccccc2)cc1 [Clomifen],> 80,≤ 40,> 40,≤ 40,≤ 40,> 160,≤ 80,≤ 10,≤ 40,≤ 80,≤ 10,≤ 40,≤ 20,> 160,≤ 40,≤ 40,≤ 20,≤ 80,> 80,≤ 40,≤ 80,≤ 40,≤ 40,≤ 40,,,,,
CCN(CC)CCOc1ccc(C(=C(Cl)c2ccccc2)c2ccccc2)cc1 [Clomiphene],,,,,,,,,,,,,,,,,,,,,,,,,0.947,0.955,0.845,0.398,0.335
CCOC(=O)C1=C(C)NC(C)=C(C(=O)OC)C1c1cccc(Cl)c1Cl (stereo not drawn) [Felodipine],> 20,> 40,> 80,≤ 20,≤ 20,> 40,≤ 40,≤ 40,≤ 40,> 80,≤ 20,≤ 40,≤ 40,> 20,≤ 10,≤ 20,≤ 10,> 40,> 80,≤ 20,,,,,,,,,
CNCCC(Oc1ccc(C(F)(F)F)cc1)c1ccccc1 (stereo not drawn) [Fluoxetine],≤ 160,≤ 160,≤ 160,≤ 160,≤ 80,> 160,> 160,≤ 80,≤ 160,≤ 160,≤ 40,≤ 80,≤ 160,> 160,≤ 80,≤ 80,≤ 80,≤ 80,> 160,≤ 40,> 160,≤ 160,≤ 160,> 160,,,,,
CN(C)C(=O)C(CCN1CCC(O)(c2ccc(Cl)cc2)CC1)(c1ccccc1)c1ccccc1 [Loperamide],> 80,> 80,> 80,≤ 80,≤ 80,> 160,> 80,≤ 80,≤ 80,> 80,≤ 80,≤ 80,≤ 80,> 80,> 80,≤ 80,≤ 40,> 80,> 80,≤ 40,> 80,> 80,> 80,> 80,,,,,
Cc1c(N(C)CS(=O)(=O)O)c(=O)n(-c2ccccc2)n1C [Metamizol],> 160,> 160,> 160,> 160,> 160,> 160,> 160,> 160,> 160,> 160,> 160,> 160,> 160,> 160,> 160,> 160,> 160,> 160,> 160,> 160,> 160,> 160,> 160,> 160,,,,,
Cc1c(N(C)CS(=O)(=O)O)c(=O)n(-c2ccccc2)n1C [Metamizole],,,,,,,,,,,,,,,,,,,,,,,,,1,0.981,1.01,1,0.994
Cc1ncc([N+](=O)[O-])n1CCO [Metronidazol],> 160,< 1.25,≤ 160,< 1.25,< 1.25,> 160,≤ 160,< 1.25,< 1.25,≤ 160,< 1.25,< 1.25,< 1.25,,> 160,< 1.25,< 1.25,< 1.25,> 160,< 1.25,< 1.25,< 1.25,< 1.25,< 1.25,,,,,
CC(C)(O)c1ccccc1CC[C@@H](SCC1(CC(=O)O)CC1)c1cccc(/C=C/c2ccc3ccc(Cl)cc3n2)c1 [Montelukast],> 10,> 80,> 20,> 40,> 80,> 160,≤ 10,> 80,> 80,> 20,> 80,> 80,> 20,> 10,≤ 5,> 80,≤ 10,> 80,> 20,≤ 10,> 40,≤ 5,> 10,> 10,,,,,
CCn1cc(C(=O)O)c(=O)c2ccc(C)nc21 [Nalidixic Acid],> 160,> 160,≤ 2.5,≤ 160,> 160,≤ 5,> 160,> 160,≤ 160,< 1.25,> 160,≤ 80,> 160,≤ 5,> 160,≤ 160,> 160,≤ 160,≤ 2.5,> 160,> 160,≤ 20,> 160,≤ 160,,,,,
CCn1cc(C(=O)O)c(=O)c2cc(F)c(N3CCNCC3)cc21 [Norfloxacin],≤ 10,≤ 20,≤ 10,≤ 80,≤ 80,< 1.25,≤ 20,≤ 10,≤ 80,< 1.25,≤ 10,≤ 40,≤ 10,< 1.25,≤ 10,≤ 20,≤ 160,≤ 20,< 1.25,≤ 40,≤ 20,≤ 2.5,≤ 40,≤ 160,,,,,
CO[C@@H]1[C@@H](OC(N)=O)[C@@H](O)[C@H](Oc2ccc3c(O)c(NC(=O)c4ccc(O)c(CC=C(C)C)c4)c(=O)oc3c2C)OC1(C)C [Novobiocin],≤ 20,< 1.25,≤ 20,≤ 20,< 1.25,≤ 5,< 1.25,< 1.25,≤ 20,< 1.25,< 1.25,< 1.25,< 1.25,≤ 40,< 1.25,< 1.25,< 1.25,≤ 5,≤ 2.5,≤ 5,< 1.25,≤ 5,≤ 10,≤ 5,,,,,
N=C(N)c1ccc(OCCCCCOc2ccc(C(=N)N)cc2)cc1 [Pentamidine Isothionate],> 80,< 1.25,≤ 160,≤ 80,≤ 20,> 160,≤ 10,≤ 2.5,≤ 20,> 160,< 1.25,≤ 5,≤ 10,,≤ 10,≤ 20,≤ 5,≤ 10,≤ 160,≤ 5,> 160,≤ 2.5,≤ 10,≤ 40,,,,,
CN[C@H]1CC[C@@H](c2ccc(Cl)c(Cl)c2)c2ccccc21 [Sertraline],≤ 80,≤ 160,≤ 160,≤ 160,> 160,≤ 160,≤ 160,≤ 40,≤ 80,≤ 80,≤ 80,≤ 80,≤ 80,> 160,≤ 80,≤ 160,≤ 40,≤ 160,≤ 160,≤ 10,≤ 160,≤ 80,≤ 80,≤ 80,,,,,
O=C(O)Cc1cc(I)c(Oc2ccc(O)c(I)c2)c(I)c1 [Tiratricol],> 160,≤ 20,> 160,≤ 80,≤ 40,> 160,≤ 20,≤ 20,≤ 80,≤ 80,≤ 80,≤ 40,≤ 80,> 160,≤ 10,≤ 80,≤ 40,≤ 40,> 160,≤ 160,≤ 80,≤ 20,≤ 20,≤ 20,,,,,
